Reference: US20240228535A1 (priority 2022, published 2024)

Each molecule was assayed against SARS2 coronavirus 3CL protease (Severe acute respiratory syndrome coronavirus 2, UniProt P0DTD1) (assay: biochemical). Conditions: 5 nM enzyme, 30 min pre-incubation with compound, 15 μM peptide substrate, 4 h at room temperature; read-out: FRET Potency (nM); IC50 values in the SARS2 3CLPro FRET assay.

SMILES | IC50 [nM]
CNC(=O)C(=O)[C@H](C[C@@H]1CCNC1=O)NC(=O)c1cc(F)c(F)cc1NC(=O)OC [Example 109, methyl N-[4,5-difluoro-2-[[(1S)-3-(methylamino)-2,3-dioxo-1-[[(3S)-2-oxopyrrolidin-3-yl]methyl]propyl]carbamoyl]phenyl]carbamate] | 6
CNC(=O)C(=O)[C@H](C[C@@H]1CCNC1=O)NC(=O)c1cc(Cl)ccc1NC(=O)C1CC1 [Example 110, 5-chloro-2-(cyclopropanecarbonylamino)-N-[(1S)-3-(methylamino)-2,3-dioxo-1-[[(3S)-2-oxopyrrolidin-3-yl]methyl]propyl]benzamide] | 3.1
CCOC(=O)Nc1ccc(Cl)cc1C(=O)N[C@@H](C[C@@H]1CCNC1=O)C(=O)C(=O)NC [Example 111, ethyl N-[4-chloro-2-[[(1S)-3-(methylamino)-2,3-dioxo-1-[[(3S)-2-oxopyrrolidin-3-yl]methyl]propyl]carbamoyl]phenyl]carbamate] | 5.8
[2H]C([2H])([2H])OC(=O)Nc1ccc(Cl)cc1C(=O)N[C@@H](C[C@@H]1C[C@@H](C)NC1=O)C(=O)C(=O)NC [Example 112, trideuteriomethyl N-[4-chloro-2-[[(1S)-3-(methylamino)-1-[[(3S,5R)-5-methyl-2-oxo-pyrrolidin-3-yl]methyl]-2,3-dioxo-propyl]carbamoyl]phenyl] carbamate] | 6
CNC(=O)C(=O)[C@H](C[C@@H]1C[C@@H](C)NC1=O)NC(=O)c1nc(Cl)ccc1NC(=O)OC [Example 113] | 1290
C[C@@H]1C[C@@H](C[C@H](NC(=O)c2cc(Cl)ccc2NC(=O)CCC(F)(F)F)C(=O)C(=O)NCc2ccncc2)C(=O)N1 [Example 114, 5-chloro-N-[(1S)-1-[[(3S,5R)-5-methyl-2-oxo-pyrrolidin-3-yl]methyl]-2,3-dioxo-3-(4-pyridylmethylamino)propyl]-2-(4,4,4-trifluorobutanoylamino) benzamide] | 18.9
C[C@@H]1C[C@@H](C[C@H](NC(=O)c2cc(Cl)ccc2NC(=O)CCC(F)(F)F)C(=O)C(=O)NCc2ccccc2)C(=O)N1 [Example 115, N—((S)-4-(benzylamino)-1-((3S,5R)-5-methyl-2-oxopyrrolidin-3-yl)-3,4-dioxobutan-2-yl)-5-chloro-2-(4,4,4-trifluorobutanamido)benzamide] | 11.5
C[C@@H]1C[C@@H](C[C@H](NC(=O)c2cc(Cl)ccc2NC(=O)CCC(F)(F)F)C(=O)C(=O)NCc2nc[nH]n2)C(=O)N1 [Example 116, 5-chloro-N-[(1S)-1-[[(3S,5R)-5-methyl-2-oxo-pyrrolidin-3-yl]methyl]-2,3-dioxo-3-(1H-1,2,4-triazol-3-ylmethylamino)propyl]-2-(4,4,4-trifluorobutanoylamino) benzamide] | 20.9
C[C@@H]1C[C@@H](C[C@H](NC(=O)c2cc(Cl)ccc2NC(=O)CCC(F)(F)F)C(=O)C(=O)NCCO)C(=O)N1 [Example 117, 5-chloro-N-[(1S)-3-(2-hydroxyethylamino)-1-[[(3S,5R)-5-methyl-2-oxo-pyrrolidin-3-yl]methyl]-2,3-dioxo-propyl]-2-(4,4,4-trifluorobutanoylamino) benzamide] | 9.3
CNC(=O)C(=O)[C@H](C[C@@H]1C[C@@H](C)NC1=O)NC(=O)c1cc(Cl)ncc1NC(=O)OC [Example 118] | 23.9
CNC(=O)C(=O)[C@H](C[C@@H]1C[C@@H](C)NC1=O)NC(=O)c1cc(Cl)cnc1NC(=O)OC [Example 119, methyl N-[5-chloro-3-[[(1S)-3-(methylamino)-1-[[(3S,5R)-5-methyl-2-oxo-pyrrolidin-3-yl]methyl]-2,3-dioxo-propyl]carbamoyl]-2-pyridyl]carbamate] | 5.6
CNC(=O)C(=O)[C@H](C[C@@H]1C[C@@H](C)NC1=O)NC(=O)c1cc(F)c(F)cc1NC(=O)OC [Example 120, methyl N-[4,5-difluoro-2-[[(1S)-3-(methylamino)-1-[[(3S,5R)-5-methyl-2-oxo-pyrrolidin-3-yl]methyl]-2,3-dioxo-propyl]carbamoyl]phenyl] carbamate] | 11.1
CNC(=O)C(=O)[C@H](C[C@@H]1C[C@@H](C)NC1=O)NC(=O)c1cc(F)ccc1NC(=O)OC1CC1 [Example 121, cyclopropyl N-[4-fluoro-2-[[(1S)-3-(methylamino)-1-[[(3S,5R)-5-methyl-2-oxo-pyrrolidin-3-yl]methyl]-2,3-dioxo-propyl]carbamoyl]phenyl] carbamate] | 10.9
CNC(=O)C(=O)[C@H](C[C@@H]1C[C@@H](C)NC1=O)NC(=O)c1cc(Cl)ccc1NC(=O)C1CC1 [Example 122] | 8.1
COC(=O)Nc1ccc(Cl)cc1C(=O)N[C@@H](C[C@@H]1CCNC1=O)C(=O)C(=O)NC1CC1 [Example 123] | 7.3
[2H]C([2H])([2H])OC(=O)Nc1ccc(Cl)cc1C(=O)N[C@@H](C[C@@H]1CCNC1=O)C(=O)C(=O)NC1CC1 [Example 124, trideuteriomethyl N-[4-chloro-2-[[(1S)-3-(cyclopropylamino)-2,3-dioxo-1-[[(3S)-2-oxopyrrolidin-3-yl]methyl]propyl]carbamoyl]phenyl]carbamate] | 8.2

SMILES | IC50 [nM]
CNC(=O)C(=O)[C@H](C[C@@H]1C[C@@H](C)NC1=O)NC(=O)c1cc(Cl)ccc1NC(=O)C(C)C [Example 125, 5-chloro-N-[(1S)-3-(methylamino)-1-[[(3S,5R)-5-methyl-2-oxo-pyrrolidin-3-yl]methyl]-2,3-dioxo-propyl]-2-(2-methylpropanoylamino) benzamide] | 5.6
CNC(=O)C(=O)[C@H](C[C@@H]1CCNC1=O)NC(=O)c1cc(Cl)ccc1NC(=O)C(C)(C)C [Example 126, 5-chloro-2-(2,2-dimethylpropanoylamino)-N-[(1S)-3-(methylamino)-2,3-dioxo-1-[[(3S)-2-oxopyrrolidin-3-yl]methyl]propyl]benzamide] | 3.8
CNC(=O)C(=O)[C@H](C[C@@H]1CCNC1=O)NC(=O)c1cc(F)c(F)cc1NC(=O)OC1CC1 [Example 127, cyclopropyl N-[4,5-difluoro-2-[[(1S)-3-(methylamino)-2,3-dioxo-1-[[(3S)-2-oxopyrrolidin-3-yl]methyl]propyl]carbamoyl]phenyl]carbamate] | 7.9
CNC(=O)C(=O)[C@H](C[C@@H]1CCNC1=O)NC(=O)c1cc(Cl)ccc1NC(=O)OC(C)C [Example 128, isopropyl N-[4-chloro-2-[[(1S)-3-(methylamino)-2,3-dioxo-1-[[(3S)-2-oxopyrrolidin-3-yl]methyl]propyl]carbamoyl]phenyl]carbamate] | 7.2
CCOC(=O)Nc1ccc(Cl)cc1C(=O)N[C@@H](C[C@@H]1C[C@@H](C)NC1=O)C(=O)C(=O)NC [Example 129, ethyl N-[4-chloro-2-[[(1S)-3-(methylamino)-1-[[(3S,5R)-5-methyl-2-oxo-pyrrolidin-3-yl]methyl]-2,3-dioxo-propyl]carbamoyl]phenyl] carbamate] | 5.9
CNC(=O)C(=O)[C@H](C[C@@H]1C[C@@H](C)NC1=O)NC(=O)c1cc(C(F)F)ccc1NC(=O)OC [Example 130, methyl N-[4-(difluoromethyl)-2-[[(1S)-3-(methylamino)-1-[[(3S,5R)-5-methyl-2-oxo-pyrrolidin-3-yl]methyl]-2,3-dioxo-propyl]carbamoyl]phenyl] carbamate] | 20.7
CNC(=O)C(=O)[C@H](C[C@@H]1C[C@@H](C)NC1=O)NC(=O)c1cc(C#N)ccc1NC(=O)OC1CC1 [Example 131, cyclopropyl N-[4-cyano-2-[[(1S)-3-(methylamino)-1-[[(3S,5R)-5-methyl-2-oxo-pyrrolidin-3-yl]methyl]-2,3-dioxo-propyl]carbamoyl]phenyl] carbamate] | 36.5
CNC(=O)C(=O)[C@H](C[C@@H]1C[C@@H](C)NC1=O)NC(=O)c1cc(Cl)c(F)cc1NC(=O)OC [Example 132, methyl N-[4-chloro-5-fluoro-2-[[(1S)-3-(methylamino)-1-[[(3S,5R)-5-methyl-2-oxo-pyrrolidin-3-yl]methyl]-2,3-dioxo-propyl]carbamoyl]phenyl] carbamate] | 13.8
CNC(=O)C(=O)[C@H](C[C@@H]1C[C@@H](C)NC1=O)NC(=O)c1cc(Cl)cc(F)c1NC(=O)OC [Example 133, methyl N-[4-chloro-2-fluoro-6-[[(1S)-3-(methylamino)-1-[[(3S,5R)-5-methyl-2-oxo-pyrrolidin-3-yl]methyl]-2,3-dioxo-propyl]carbamoyl]phenyl] carbamate] | 9.9
CNC(=O)C(=O)[C@H](C[C@@H]1C[C@@H](C)NC1=O)NC(=O)c1cc(F)c(Cl)cc1NC(=O)OC [Example 134, methyl N-[5-chloro-4-fluoro-2-[(1S)-3-(methylamino)-1-[[(3S,5R)-5-methyl-2-oxo-pyrrolidin-3-yl]methyl]-2,3-dioxo-propyl]carbamoyl]phenyl] carbamate] | 28.2
CNC(=O)C(=O)[C@H](C[C@@H]1C[C@@H](C)NC1=O)NC(=O)c1cc(Cl)ccc1NC(=O)C1COC1 [Example 135] | 3
CNC(=O)C(=O)[C@H](C[C@@H]1CCNC1=O)NC(=O)c1cc(Cl)ccc1NC(=O)OCC1CC1 [Example 136, cyclopropylmethyl N-[4-chloro-2-[[(1S)-3-(methylamino)-2,3-dioxo-1-[[(3S)-2-oxopyrrolidin-3-yl]methyl]propyl]carbamoyl]phenyl]carbamate] | 3.6
CNC(=O)C(=O)[C@H](C[C@@H]1CCNC1=O)NC(=O)c1cc(Cl)ccc1NC(=O)OC1CCC1 [Example 137, cyclobutyl N-[4-chloro-2-[[(1S)-3-(methylamino)-2,3-dioxo-1-[[(3S)-2-oxopyrrolidin-3-yl]methyl]propyl]carbamoyl]phenyl]carbamate] | 5.4
CNC(=O)C(=O)[C@H](C[C@@H]1CCNC1=O)NC(=O)c1cc(Cl)ccc1NC(=O)OC1(C)CC1 [Example 138, (1-methylcyclopropyl) N-[4-chloro-2-[[(1S)-3-(methylamino)-2,3-dioxo-1-[[(3S)-2-oxopyrrolidin-3-yl]methyl]propyl]carbamoyl]phenyl]carbamate] | 18.6
CCOC(=O)Nc1ccc(Cl)cc1C(=O)N[C@@H](C[C@@H]1CCNC1=O)C(=O)C(=O)NC1CC1 [Example 139] | 6.3
